Reference: patent US10030027B2, “Soluble guanylate cyclase stimulators” (MERCK SHARP & DOHME CORP., priority 2015, dated 2018)
Like-named read-outs stand apart in the source and are kept apart here.

Tests used:
[1] = molecular target: human recombinant sGC enzyme (Homo sapiens (Human), UniProt Q02108+Q02153); assay: Size Exclusion Chromatography (SEC) competition binding assay using [3H] Ex-77B as the radioligand; settings: [3H] Ex-77B radioligand, 24 hours at 37° C.
Summary of the method: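 Recombinant human sGC binding measured by competition against tritiated Ex-77B radioligand, with non-specific binding defined by 1 μM unlabeled Ex-77B.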

[2] = molecular target: sGC α1/β1 heterodimer (Homo sapiens (Human), UniProt Q02108+Q02153); assay: Cell-based sGC functional assay (cyclic GMP assay for sGC activator: CASA assay); settings: CHO-K1/sGC cells; for Emax: read-out: % Activation; for EC50: inflection point, 4P fit, read-out: IP
Summary of the method: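 CHO-K1 cells stably expressing sGC α1/β1 were pre-incubated with or without 1 μM DETA-NO (30 min, 25 °C), then exposed to compounds for 1 hr at 37 °C with 0.5 mM IBMX. Intracellular cGMP was read by HTRF and expressed as a percentage of a reference heme-dependent activator's maximum.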

[3] = CHO-K1, activity expressed as percentage of compound A (standard)

Compound	Ki [1] [nM]	Emax [2, 3] [%]	EC50 [2] [nM]	Emax ([2]; activity expressed as percentage of compound A (standard)) [%]
C[C@@]1(c2ccc(CCC(=O)O)cc2)C(=O)Nc2nc(-c3nn(CC4CCCC4)c4ccccc34)nc(N)c21 [Example 227B, (S)-3-(4-{4-amino-2-[1-(cyclopentyl-methyl)-1H-indazol-3-yl]-5-methyl-6-oxo-6,7-dihydro-5H-pyrrolo[2,3-d]pyrimidin-5-yl}phenyl)propanoic acid]	0.146	63.5	74	–
C[C@@]1(c2ccc(CCC(=O)O)cc2)C(=O)Nc2nc(-c3nn(Cc4ncccc4F)c4ccccc34)nc(N)c21 [Example 232B, (S)-3-{4-[4-amino-2-{1-[(3-fluoropyridin-2-yl)methyl]-1H-indazol-3-yl}-5-methyl-6-oxo-6,7-dihydro-5H-pyrrolo[2,3-d]pyrimidin-5-yl]phenyl}propanoic acid]	0.085	89.1	4150	–
CC1(c2nc(C[C@H](N)C(=O)O)cs2)C(=O)Nc2nc(-c3nn(Cc4ccccc4F)c4cc(Cl)ccc34)nc(N)c21 (stereo partly drawn) [Example 234B, (S)-3-(2-{4-Amino-2-[6-chloro-1-(2-fluorobenzyl)-1H-indazol-3-yl]-5-methyl-6-oxo-6,7-dihydro-5H-pyrrolo[2,3-d]pyrimidin-5-yl}-1,3-thiazol-4-yl)-D-alanine]	0.947	135	265	–
CC(C)(Cc1csc([C@]2(C)C(=O)Nc3nc(-c4nn(Cc5ccccc5F)c5cc(Cl)ccc45)nc(N)c32)n1)c1nn[nH]n1 [Example 238A, (S)-4-amino-2-[6-chloro-1-(2-fluorobenzyl)-1H-indazol-3-yl]-5-methyl-5-{4-[2-methyl-2-(2H-tetrazol-5-yl)propyl]-1,3-thiazol-2-yl}-5,7-dihydro-6H-pyrrolo[2,3-d] pyrimidin-6-one]	0.095	99.5	609	–
C[C@@]1(c2ccc(CCc3nn[nH]n3)cc2)C(=O)Nc2nc(-c3nn(Cc4ccccc4F)c4ncccc34)nc(N)c21 [Example 240B, (S)-4-amino-2-[1-(2-fluoro-benzyl)-1H-pyrazolo[3,4-b]pyridin-3-yl]-5-methyl-5-{4-[2-(2H-tetrazol-5-yl)ethyl]phenyl}-5,7-dihydro-6H-pyrrolo[2,3-d] pyrimidin-6-one]	0.075	104	749	–
CC(C)(Cc1csc([C@]2(C)C(=O)Nc3nc(-c4nn(Cc5ccccc5F)c5ncccc45)nc(N)c32)n1)c1nn[nH]n1 [Example 241A, (S)-4-amino-2-[1-(2-fluoro-benzyl)-1H-pyrazolo[3,4-b]pyridin-3-yl]-5-methyl-5-{4-[2-methyl-2-(2H-tetrazol-5-yl)propyl]-1,3-thiazol-2-yl}-5,7-dihydro-6H-pyrrolo[2,3-d] pyrimidin-6-one]	0.121	94.8	403	–
C[C@@]1(c2ccc(CCc3nn[nH]n3)cc2)C(=O)Nc2nc(-c3nn(Cc4ccccc4F)c4ccccc34)nc(N)c21 [Example 242B, (S)-4-amino-2-[1-(2-fluoro-benzyl)-1H-indazol-3-yl]-5-methyl-5-{4-[2-(2H-tetrazol-5-yl)ethyl]phenyl}-5,7-dihydro-6H-pyrrolo[2,3-d] pyrimidin-6-one]	1.11	107	3100	–
CC1(c2cc(-c3nn[nH]n3)ccn2)C(=O)Nc2nc(-c3nn(Cc4ccccc4F)c4cc(Cl)ccc34)nc(N)c21 (stereo not drawn) [Example 243A, 5-[4-(2H-tetrazol-5-yl)pyridin-2-yl]-4-amino-2-[6-chloro-1-(2-fluorobenzyl)-1H-indazol-3-yl]-5-methyl-5,7-dihydro-6H-pyrrolo[2,3-d] pyrimidin-6-one]	0.062	101	3600	–
CC(C)(Cc1coc(C2(C)C(=O)Nc3nc(-c4nn(Cc5ccccc5F)c5ccccc45)nc(N)c32)n1)c1nn[nH]n1 (stereo not drawn) [Example 248B, 4-Amino-2-[1-(2-fluorobenzyl)-1H-indazol-3-yl]-5-methyl-5-{4-[2-methyl-2-(2H-tetrazol-5-yl)propyl]oxazol-2-yl}-5,7-dihydro-6H-pyrrolo[2,3-d]pyrimidin-6-one]	0.048	106	116	–
CC1(c2cccc(-c3nn[nH]n3)c2)C(=O)Nc2nc(-c3nn(Cc4ccccc4F)c4cc(F)ccc34)nc(N)c21 (stereo not drawn) [Example 249B, 4-Amino-2-[6-fluoro-1-(2-fluorobenzyl)-1H-indazol-3-yl]-5-methyl-5-[3-(1H-tetrazol-5-yl)phenyl]-5,7-dihydro-6H-pyrrolo[2,3-d]pyrimidin-6-one]	0.068	98.5	2620	–
CC1(c2ccc(C(=O)O)cn2)C(=O)Nc2nc(-c3nn(Cc4ccccc4F)c4cc(Cl)ccc34)nc(N)c21 (stereo not drawn) [Example 254A, 6-{4-Amino-2-[6-chloro-1-(2-fluorobenzyl)-1H-indazol-3-yl]-5-methyl-6-oxo-6,7-dihydro-5H-pyrrolo[2,3-d]pyrimidin-5-yl}pyridine-3-carboxylic acid]	0.199	123	1010	–
CC1(c2cccc(C(=O)O)n2)C(=O)Nc2nc(-c3nn(Cc4ccccc4F)c4cc(Cl)ccc34)nc(N)c21 (stereo not drawn) [Example 255A, 6-{4-Amino-2-[6-chloro-1-(2-fluorobenzyl)-1H-indazol-3-yl]-5-methyl-6-oxo-6,7-dihydro-5H-pyrrolo[2,3-d]pyrimidin-5-yl}picolinic acid]	0.073	108	1480	–
C[C@@]1(c2ccc(CCc3noc(=O)[nH]3)cc2)C(=O)Nc2nc(-c3nn(Cc4ccccc4F)c4cc(Cl)ccc34)nc(N)c21 [Example 256B, (S)-4-Amino-2-[6-chloro-1-(2-fluorobenzyl)-1H-indazol-3-yl]-5-methyl-5-{4-[2-(5-oxo-4,5-dihydro-1,2,4-oxadiazol-3-yl)ethyl]phenyl}-5,7-dihydro-6H-pyrrolo[2,3-d]pyrimidin-6-one]	0.074	–	2050	104
CC1(c2ccc(CCP(=O)(O)O)cc2)C(=O)Nc2nc(-c3nn(Cc4ccccc4F)c4cc(Cl)ccc34)nc(N)c21 (stereo not drawn) [Example 257A, [2-(4-{4-Amino-2-[6-chloro-1-(2-fluorobenzyl)-1H-indazol-3-yl]-5-methyl-6-oxo-6,7-dihydro-5H-pyrrolo[2,3-d]pyrimidin-5-yl}phenyl)ethyl]phosphonic acid]	0.105	84.7	106	–
CC1(c2ccc(OCC(=O)O)cc2)C(=O)Nc2nc(-c3nn(Cc4ccccc4F)c4cc(Cl)ccc34)nc(N)c21 (stereo not drawn) [Example 260A, (4-{4-Amino-2-[6-chloro-1-(2-fluorobenzyl)-1H-indazol-3-yl]-5-methyl-6-oxo-6,7-dihydro-5H-pyrrolo[2,3-d]pyrimidin-5-yl}phenoxy)acetic acid]	0.058	136	125	–

The next lines start with results.

Ki [1] [nM]	Emax [2, 3] [%]	EC50 [2] [nM]	Compound	Emax ([2]; activity expressed as percentage of compound A (standard)) [%]
0.079	95	64	CC(C)(Cc1coc(C2(C)C(=O)Nc3nc(-c4nn(CC5CCCCC5)c5ccccc45)nc(N)c32)n1)C(=O)O (stereo not drawn) [Example 228A, 3-(2-{4-amino-2-[1-(cyclohexyl-methyl)-1H-indazol-3-yl]-5-methyl-6-oxo-6,7-dihydro-5H-pyrrolo[2,3-d]pyrimidin-5-yl}-1,3-oxazol-4-yl)-2,2-dimethyl-propanoic acid]	–
0.083	141	204	Cc1cccc(Cn2nc(-c3nc(N)c4c(n3)NC(=O)C4(C)c3nc(CC(C)(C)C(=O)O)co3)c3ccccc32)c1F (stereo not drawn) [Example 233A, 3-(2-{4-amino-2-[1-(2-fluoro-3-methylbenzyl)-1H-indazol-3-yl]-5-methyl-6-oxo-6,7-dihydro-5H-pyrrolo[2,3-d]pyrimidin-5-yl}-1,3-oxazol-4-yl)-2,2-dimethyl-propanoic acid]	–
0.063	93.3	2730	CC1(c2ccc(Cc3nn[nH]n3)cc2)C(=O)Nc2nc(-c3nn(Cc4ccccc4F)c4cc(Cl)ccc34)nc(N)c21 (stereo not drawn) [Example 244A, 5-{4-[(2H-tetrazol-5-yl)methyl]phenyl}-4-amino-2-[6-chloro-2-(2-fluorobenzyl)-1H-indazol-3-yl]-5-methyl-5,7-dihydro-6H-pyrrolo[2,3-d] pyrimidin-6-one]	–
0.108	102	1700	CC1(c2ccc(-c3nn[nH]n3)cc2)C(=O)Nc2nc(-c3nn(Cc4ccccc4F)c4cc(F)ccc34)nc(N)c21 (stereo not drawn) [Example 250B, 4-amino-2-[6-fluoro-1-(2-fluorobenzyl)-1H-indazol-3-yl]-5-methyl-5-[4-(1H-tetrazol-5-yl)phenyl]-5,7-dihydro-6H-pyrrolo[2,3-d] pyrimidin-6-one]	–
0.111	116	560	C[C@@]1(c2ccc(CCC(=O)NS(C)(=O)=O)cc2)C(=O)Nc2nc(-c3nn(Cc4ccccc4F)c4cc(Cl)ccc34)nc(N)c21 [Example 259B, (S)-3-(4-{4-Amino-2-[6-chloro-1-(2-fluorobenzyl)-1H-indazol-3-yl]-5-methyl-6-oxo-6,7-dihydro-5H-pyrrolo[2,3-d]pyrimidin-5-yl}phenyl)-N-(methylsulfonyl)propanamide]	–
0.097	82.4	27	CC1(N2CCC(CCC(=O)O)CC2)C(=O)Nc2nc(-c3nn(Cc4ccccc4F)c4cc(Cl)ccc34)nc(N)c21 (stereo not drawn) [Example 262B, 3-(1-{4-Amino-2-[6-chloro-1-(2-fluorobenzyl)-1H-indazol-3-yl]-5-methyl-6-oxo-6,7-dihydro-5H-pyrrolo[2,3-d]pyrimidin-5-yl}piperidin-4-yl)propanoic acid]	–
